Patent US20250197368A1 (priority 2020, published 2025)

Key:
[1] = tested on: Male Sprague Dawley rats; experiment: Elevated plus maze assay; type: in vivo; settings: for percent time spent on open arms versus vehicle treated rats: rat; for effect in the rat elevated plus maze assay: dosed orally
Source text: The method, which detects anxiolytic activity, follows that described by Handley and Mithani (Naunyn. Schmied. Arch. Pharmacol., 327, 1-5, 1984). Rodents avoid open spaces (the open arms of an elevated plus-maze). Anxiolytics increase exploratory activity in the open arms, as indicated by increased time spent on the open arms and/or by increased % open-arm entries.
The maze was made from black matte acrylic and consisted of 4 arms of equal length and width (50×10 cm) arranged in the form of a plus sign (+). Two opposite arms were enclosed by 40 cm high walls (closed arms). The two other arms have no walls (open arms). The maze was raised approximately 65 cm above the floor.
Male Sprague Dawley rats (c. 200-300 g) were used for the study. 13 to 15 rats were studied per group.
Compounds were evaluated at three or four doses, administered p.o. 30 minutes to 2 hours before the test, at 5 mL per kg of body weight and its effects compared with vehicle-treated group.-Chlordiazepoxide hydrochloride (5 mg/kg, prepared in 0.9% saline), administered i.p. 30 minutes before the test, was used as reference substance to compare with the vehicle treated group.
The day before the test, rats were weighed. The compounds were prepared at least 24 hours before the test day. 30 minutes after dosing, each rat was placed in the centre of the apparatus and its behaviour was recorded for 5 minutes. The animals' behaviour on the maze was tracked using a camera mounted above the maze and the image analysed using EthoVision XT 13 video tracking software.
The percentage of time spent in the open arms was calculated by dividing the time spent on open arms to the total time in the maze.
Data were analysed by comparing treated groups with vehicle control group using one-way ANOVA followed by post-hoc Dunnett's tests.

[2] = molecular target: human α3β3γ2 GABAARs (benzodiazepine site) (Homo sapiens (Human), UniProt P18507+P34903); experiment: In vitro radioligand binding assay ([3H]Ro15-1788 displacement), α3-GABAAR Ki; settings: L(tk-) cell membranes, 4 nM [3H]Ro15-1788
Procedure, shortened: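 Membranes from dexamethasone-induced mouse L(tk−) cells stably expressing the human receptor were incubated 1 h at 4° C with 4 nM [3H]Ro15-1788 and graded compound; nonspecific binding with 1-3 μM TP003. Filter-bound radioactivity counted; Ki from IC50 by Cheng-Prusoff using the measured radioligand Kd.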

## CCCNC(=O)c1c(N)c2cccc(-c3cnccc3OC)c2[nH]c1=O [Example 17, 4-Amino-8-(4-methoxy-3-pyridyl)-2-oxo-N-propyl-1H-quinoline-3-carboxamide]
[1]; 1, 3, and 10 mg/kg p.o.
  percent time spent on open arms versus vehicle treated rats: significantly higher
[1]
  effect in the rat elevated plus maze assay: anxiolytic-like effects
[2]
  Ki: 8.74 nM

## CCCNC(=O)c1c(N)c2cccc(-c3cnc(C)cc3OC)c2[nH]c1=O [Example 18, 4-Amino-8-(4-methoxy-6-methyl-3-pyridyl)-2-oxo-N-propyl-1H-quinoline-3-carboxamide]
[1]; 1 and 3 mg/kg p.o.
  percent time spent on open arms versus vehicle treated rats: significantly higher
[1]
  effect in the rat elevated plus maze assay: anxiolytic-like effects
[2]
  Ki: 27.9 nM

## CCCNC(=O)c1c(N)c2cccc(-c3nc(C)ncc3F)c2[nH]c1=O [Example 40, 4-Amino-8-(5-fluoro-2-methyl-pyrimidin-4-yl)-2-oxo-N-propyl-1H-quinoline-3-carboxamide]
[1]; 0.3, 1 and 3 mg/kg p.o.
  percent time spent on open arms versus vehicle treated rats: significantly higher
[1]
  effect in the rat elevated plus maze assay: anxiolytic-like effects
[2]
  Ki: 5.06 nM
